Test results published in paper PMC4554983 (Bioorganic & medicinal chemistry, 2015).
≈ marks a conversion by molar mass, not a printed value. Each block holds one compound with its values, some of them ahead of it.

Tests used:
[1] = test system: Candida albicans (WTBF-50); test: Antifungal activity assay; format: cell-based
[2] = test system: Cryptococcus neoformans Cn18 (WTBF-106); test: Antifungal activity assay; format: cell-based; conditions: MIC ratio versus P2
[3] = test system: C. albicans; test: Time kill assays; format: cell-based, Candida albicans

MIC ([1]; Candida albicans): 0.125 µg/mL (≈ 0.135 µM)
SMILES: C[C@@H]1[C@H](O)[C@@H](C)/C=C/C=C/C=C/C=C/C=C/C=C/C=C/[C@H](O[C@@H]2O[C@H](C)[C@@H](O)[C@H](N)[C@@H]2O)C[C@@H]2O[C@](O)(C[C@@H](O)C[C@@H](O)[C@H](O)CC[C@@H](O)C[C@@H](O)CC(=O)O[C@H]1C)C[C@H](O)[C@H]2C(=O)O [AMB, Amphotericin B, reference compound]

SMILES: CC1CNC(c2ccc3cc(-c4ccc(-c5cc6ccc(C7=NC(C)CN7)cc6[nH]5)cc4)[nH]c3c2)=N1.O=C(O)C(F)(F)F (centres unmarked) [Compound P9]
fold more potent than P2 against Cryptococcus neoformans [2]: 6 fold

SMILES: O=C(O)C(F)(F)F.c1cc2cc(-c3ccc(-c4cc5ccc(C6=NCCCN6)cc5[nH]4)cc3)[nH]c2cc1C1=NCCCN1 [Compound P10]
time to reduce viable cells below the limit of detection ([3]; 2× the MIC): ≤ 8 h

SMILES: CC(=O)O.c1cc2cc(-c3ccc(-c4ccn5cc(C6=NCCCN6)nc5c4)cc3)[nH]c2cc1C1=NCCCN1 [Compound P33]
fold more potent than P35 against Candida spp. ([1]; MIC ratio versus P35): > 10 fold

SMILES: CC(=O)O.c1cc2cc(-c3ccc(-c4ccc5cc(C6=NCCCN6)oc5c4)cc3)[nH]c2cc1C1=NCCCN1 [Compound P34]
fungicidal activity relative to positive control ([3]; 2× the MIC and 4× the MIC, versus AMB at 4× the MIC): comparable to that of AMB
